In brackets after ≈: the same amount, converted by molar mass. Where two headings read alike, the source gives them in different places. Values belong to the compound of their own block, whether it stands above or below them.
Experiments:
[1] = cited from earlier work
[2] = Relative degree of crystallinity (RDC) by XRPD; type: physicochemical; settings: at 10% DL SD with AGF
Experimental: The term “relative degree of crystallinity (RDC),” as used herein is the degree of crystallinity of the therapeutic agent in the dosage form relative to the degree of crystallinity of the neat therapeutic agent. RDC is calculated using the following formula: RDC=I sample/I therapeutic agent I sample: peak height of the formulation under investigation at a chosen angle (2θ) I therapeutic agent: peak height of the neat therapeutic agent at the same angle that was chosen for the sample (2θ)
Powder X-ray diffraction of the ibuprofen-arabinogalactan MSDs was carried out to determine the crystallinity of the ibuprofen. Powder samples ([…]) were placed on a sample holder and the diffractograms were collected using a Bruker D8 diffractometer (Madison, Wis.) with Cu Kα radiation. The voltage of 40 kV was used and the current was 40 mA. The samples were scanned from 2 θ to 40 θ at a rate of 2 θ/minute. The data analysis was done using Bruker-AXs EVA software (version 15.0).
XRPD were collected using Rigaku D-Max B X-ray Diffractometer (Tokyo, Japan). The powder sample size of 0.5 gram was used and samples were run at 35 kV at 15 mA and […]. JADE software (version 9) was used to process, acquire and analyze the data.

[3] = In vitro drug dissolution, USP basket method, 0.1 N HCl; type: physicochemical; settings: for % drug release at 15 minutes / % drug release at 30 minutes / % drug release at 120 minutes: 0.1N HCl, AGF formulations
Experimental: (§1) The in vitro drug dissolution rates of the dosage forms listed in Table 4 below were determined by the USP basked method (270 mesh, 53 micron pore size). The Van Kel VK7010 dissolution system was employed. 900 ml of 0.1 N HCl at 37° C. was used as a dissolution medium. The media was selected to mimic gastric pH and to allow greater discrimination of ibuprofen dissolution profiles due to formulation and processing effects. The dissolution experiment was run at 100 rpm. Each sample contained a dosage form equivalent to 25 mg of ibuprofen to maintain the non sink conditions, i.e. to employ a volume of medium (900 ml in this case) that is less than the volume of medium required for sink conditions, which is three times that required in order to form a saturated solution of drug. In vitro dissolution of 25 mg of neat ibuprofen was used as a control. At appropriate time intervals, samples were collected and replaced by fresh media. Each sample was filtered and the drug was analyzed using Agilent/HP 8453 UV-Vis spectrophotometer (λmx=222 nm). The experiment was conducted in triplicate. T50 (time for 50% drug release), T60 (time for 60% drug release), and T80 (time for 80% drug release) was recorded directly from the dissolution profiles.
as §1, with “PMs and MSDs made with ibuprofen and AGF or HPMCK3” for “the dosage forms listed in Table 4 below”, “contained an MSD or” for “contained”, “PM” for “dosage form”
In vitro basket dissolution was carried out on SDM and PM formulations as described in Example 3. Each sample of ITRA AGF SDM contained an amount equivalent to 25 mg of ITRA to maintain the non sink conditions. ITRA was analyzed using an Agilent/HP 8453 UV-Vis spectrophotometer (λmax=257 nm).
UV analysis was conducted at λmax=260 nm.
The degree of similarity between the dissolution profiles was calculated using the following equation from Moore and Flanner, 1996, Pharm. Tech. 20:64-74, and using data points up to 85% drug release (Shah et al., 1998, Pharm. Res. 15:889-896):
Two dissolution profiles would be deemed similar if the average difference between the reference and the test assay at the same time point were less than 10%. The similarity factor value would then not be less than 50%.

[4] = Physical stability: XRPD RDC at accelerated storage conditions; type: physicochemical; settings: IBU as reference, 2θ of 22.4°
Experimental: The RDC was measured by XRPD as described above for the dosage forms listed in Table 22 at various accelerated storage conditions. Batches of IBU AGF SDM, IBU HPMCK3 SDM, IBU HPMCK3 MSD and IBU AGF MSD at 10% drug load and 20% drug load were prepared as described above. In addition, 10% IBU AGF MSD and 10% IBU AGF SDM batches were prepared with 0.02% butylated hydroxytoluene (BHT), an antioxidant. […] 60% relative humidity and 40° C. […] These findings were confirmed by DSC (not shown).

[5] = Equilibrium solubility of drug in polymer solution in 0.1N HCl; type: physicochemical; settings: for solubility thermodynamic at 72 h: 0.1 N HCl without polymer, simulated gastric fluid, thermodynamic from solid, 0.1 N HCl, 37 C, no polymer, read-out: saturation / equilibrium solubility of neat drug; for fold increase in drug solubility in the presence of AGF polymer: AGF dissolved in 0.1N HCl, 0% to 3%, ITRA and KETO at 3%
Experimental: Anal. Chem. Instrum. […] An excess of IBU (200 mg) was added to 10 ml of polymer solution in 0.1N HCl in a stoppered glass vial and was bath sonicated for 30 minutes. The polymer concentrations ranged from 0% to 3% (0 mg/ml to 30 mg/ml). The vials were kept in a shaking water bath at 37 C and at 50 rpm for 72 hours to obtain equilibrium. After 72 hours the shaker was turned off and the samples were kept at a standstill at 37 C for 3 hours to settle the undissolved drug at the bottom of the glass vials. The supernatant was filtered using a 0.45 micron filter.
For an equilibrium study of itraconazole, 50 mg itraconazole (ITRA) was added to 20 ml of AGF polymer solution in 0.1 N HCl.

SMILES: CC(=O)N1CCN(c2ccc(OC[C@H]3CO[C@](Cn4ccnc4)(c4ccc(Cl)cc4Cl)O3)cc2)CC1 (racemic) [KETOC, ketoconazole]
Solubility [1]: 10 µg/mL (≈ 18.8 µM)

SMILES: CCCNC(=O)NS(=O)(=O)c1ccc(Cl)cc1 [CHLOPR, chlorpropamide]
Solubility ([1]; water at pH 6): 2500 µg/mL (≈ 9030 µM)

SMILES: C[C@@H](C(=O)O)c1ccc(-c2ccccc2)c(F)c1 [FLURBI, flurbiprofen]
Solubility [1]: 482 µg/mL (≈ 1970 µM)

RDC value [2]: 0.125
SMILES: CC(C(=O)O)c1cccc(Oc2ccccc2)c1 (stereo not shown) [Fenoprofen, fenoprofen]
Solubility ([1]; for its calcium salt): <<<<<<2500 μg/ml

% drug release at 15 minutes [3]: 8% | % drug release at 30 minutes [3]: 27% | % drug release at 120 minutes [3]: 41% | T60 (time for 60% drug release) ([3]; 900 ml 0.1 N HCl, 37° C., 100 rpm, 25 mg ibuprofen, non sink): 300 min | XRPD RDC, 25° C. and 0% relative humidity (6 Months) [4]: 1 | XRPD RDC, 25° C. and 60% relative humidity (6 Months) [4]: 1 | XRPD RDC, 40° C. and 0% relative humidity (3 Months) [4]: 1 | XRPD RDC, 40° C. and 75% relative humidity (3 Months) [4]: 1 | XRPD RDC, INITIAL [4]: 1 | solubility thermodynamic at 72 h [5]: 37 µg/mL (≈ 179 µM) | fold increase in drug solubility in the presence of AGF polymer [5]: 7.3 fold | IBU solubility with increasing HPMCK3 concentration ([5]; control polymer HPMCK3 in 0.1N HCl): did not enhance the solubility
SMILES: CC(C)Cc1ccc(C(C)C(=O)O)cc1 (stereo not shown) [IBU, Ibuprofen]

solubility thermodynamic at 72 h [5]: 5720 µg/mL (≈ 8110 µM) | fold increase in drug solubility in the presence of AGF polymer [5]: 16 fold
SMILES: CCC(C)n1ncn(-c2ccc(N3CCN(c4ccc(OCC5COC(Cn6cncn6)(c6ccc(Cl)cc6Cl)O5)cc4)CC3)cc2)c1=O (stereo not shown) [ITRA, Itraconazole]

% drug release at 15 minutes [3]: 1.8% | % drug release at 30 minutes [3]: 3.3% | % drug release at 120 minutes [3]: 8.4%
SMILES: CC(C(=O)O)c1cccc(C(=O)c2ccccc2)c1 (stereo not shown) [KETO, Ketoprofen]

SMILES: COCCOC(=O)C1=C(C)NC(C)=C(C(=O)OC(C)C)C1c1cccc([N+](=O)[O-])c1 (stereo not shown) [NIMO, nimodipine]
Solubility [1]: 2299 µg/mL (≈ 5490 µM)

SMILES: CC(C)NCC(O)COc1cccc2ccccc12 (stereo not shown) [PROPFB, propranolol free base]
Solubility [1]: 120 µg/mL (≈ 463 µM)

SMILES: Clc1ccc(C(Cn2ccnc2)OCc2ccsc2Cl)c(Cl)c1 (stereo not shown) [TIOCO, tioconazole]
Solubility [1]: ~2 µg/mL (≈ 5.16 µM)

Source: patent US10994013B2, “Solid dosage form containing arabinogalactan” (TEMPLE UNIVERSITY—OF THE COMMONWEALTH SYSTEM OF HIGHER …, priority 2013, dated 2021)
